Measurements reported in patent publication US20100028447A1, “Intranasal, Buccal, And Sublingual Administration Of Metanicotine Analogs” (TARGACEPT, INC., priority 2007, published 2010).
Values joined by “and” are separate entries in the source; they are usually repeats but may differ in a detail not shown here. Identical values can stand only once. Like-named read-outs stand apart in the source and are kept apart here.

Key:
[1] = Brain-to-plasma ratio after oral gavage or intranasal administration (Example 4); format: in vivo, Sprague-Dawley rats
Description: Eight treatment groups of nine rats each were used (see Study Design, Table 6). […] The animals were housed up to three per cage and identified by cage labels. A single room was used for this study. […] Food was withheld from the animals for a minimum of 12 hours before the study and during the study, and was returned at 4 hours post-dose. Water was supplied ad libitum during the study.
All dosing solutions were prepared in isotonic PBS (phosphate buffered saline) buffer at pH 7.4. […] For intranasal dosing, the animals were anesthetized with CO2 prior to dosing, and the solution was administered in a droplet from a pipette.
For each treatment group, brain and plasma samples were collected at 10, 30 and 60 minutes post-dose. Blood samples were placed in heparinized tubles and spun at 13,000 rpm for 5 minutes. The plasma was placed in polyethylene tubes and frozen (−60 to −80° C.). Brain samples were also placed in chilled tubes and frozen (−60 to −80° C.). Samples remained chilled during subsequent processing.
Brain samples were thawed and weighed. […] After homogenation, the volume of each sample was recorded and the samples were frozen at −80° C. until analysis.
Plastic tubes were used for all steps. Standards were prepared at concentrations of 1000, 500, 250, 100, 50, 10, 5 and 1 ng/mL by serial dilution. Quality control samples were also prepared at 500, 100, and 5 ng/mL. […] Brain standards and quality control samples were treated identically to the test compound samples.
(§1) Brain samples (200 μL) were loaded onto a 96 well plate and then transferred to 400 μL of pure acetonitrile (containing 10 ng/mL nicotine as an internal standard) in a Sirocco Protein Precipitation Plate (Waters Corporation). The resulting suspensions were mixed and then filtered into a clean 96-well collection plate using a vacuum. A 200 μL aliquot of the resulting filtrate was then transferred to plastic HPLC vials for analysis.
as §1, with “Plasma” for “Brain”, “(50” for “(200”, “150” for “400”, “80” for “200”
(§2) Brain samples (200 μL) were loaded onto a 96 well plate and then transferred to 400 μL of acetonitrile containing internal standard (100 ng/mL Pindolol) in a Sirocco Protein Precipitation Plate (Waters Corporation). The resulting suspensions were mixed and then filtered into a clean 96-well collection plate using a vacuum. The resulting filtrates were then evaporated to dryness under nitrogen at 37° C. The resulting residues were reconstituted with 200 μL of water. The samples were then mixed, centrifuged, and transferred (100 μL) to plastic HPLC vials for analysis.
as §2, with “(50” for “(200”, “150” for “400”, “100” for “200”

[2] = Permeation across cultured human respiratory epithelium (EpiAir tissue), apical-to-basolateral Papp; settings: human, pH 7.4, Papp
Description: An in vitro model of MatTek EpiAir® tissue was used for the permeability assessment of the test articles and control compounds. The EpiAir® culture consists of cells that have been cultured to form a pseudo-stratified, highly differentiated model closely resembling the epithelial tissue of the human respiratory tract. The histological cross-sections of the cultured tissue reveal a pseudo-stratified mucociliary phenotype.
EpiAir® tissues plated in 12 well plates were pre-equilibrated for the assay by culturing them for 24 hours at 37° C. with 5% CO2 in a humidified incubator. On the day of the assay, the cultures were washed two times with Dulbeccos' Phosphate Buffered Saline (DPBS buffer) at pH 7.4, and then dosed with donor and receiver buffer applied to the apical and basolateral surfaces of the culture, respectively. The receiver buffer consisted of DPBS, at pH 7.4. The donor solution consisted of DPBS buffer containing the appropriate compounds as specified in Table 1. All treatments were performed in triplicate. The receiver buffer was sampled at 15, 30, 60, and 120 minutes, and the donor buffer was sampled at 120 minutes.
The Lucifer Yellow concentration in the receiver samples was measured using a FluoStar fluorescence plate reader (BMG Laboratories, Durham, N.C.).
The apparent permeability coefficient, Papp, was calculated as follows: […]
where: dCr/dt is the slope of the cumulative concentration in the receiver compartment versus time; Vr is the volume of the receiver compartment; A is the surface area of epithelium available for permeation; and Co is the dosing solution concentration.

[3] = Sprague-Dawley, rat, in vivo, 10 mg/kg, Brain-to-Plasma Ratio
[4] = Sprague-Dawley, rat, in vivo, 10 mg/kg, Mean Ratio (brain-to-plasma)
[5] = Sprague-Dawley, rat, in vivo, intranasal, 1 mg/kg, Average brain-to-plasma ratio
[6] = Sprague-Dawley, rat, in vivo, po, 5 mg/kg, Average brain-to-plasma ratio

CNCC/C=C/c1cccnc1 [Compound B, N-methyl-(4-pyridin-3-yl-but-3-enyl)-amine]
Kp at […] ([1]; Sprague-Dawley, rat, in vivo, inhaled or intranasal, 1 mg/kg, intranasal 1 mg/kg with pargyline, 10 minute time point, two animals, read-out: Brain-to-plasma ratio (average value)): 0.89
Kp at 0.5 h ([1]; Sprague-Dawley, rat, in vivo, inhaled or intranasal, 1 mg/kg, intranasal 1 mg/kg with pargyline, 30 minute time point, one animal, read-out: Brain-to-plasma ratio): 0.21
Kp at […] ([1]; Sprague-Dawley, rat, in vivo, inhaled or intranasal, 1 mg/kg, intranasal 1 mg/kg without pargyline, 10 minute time point, two animals, read-out: Brain-to-plasma ratio (average value)): 1.09
Kp ([1]; Sprague-Dawley, rat, in vivo, po, 10 mg/kg, oral gavage administration, two animals, both at the minute time point): 0.22
Papp at 120 min ([2]; Treatment 1: Compound B assayed with controls, Average ± STD): 18.3 ± 0.28 ×10⁻⁶ cm/s
Papp at 120 min ([2]; Treatment 1: Compound B assayed with controls, Rep 1): 18.5 ×10⁻⁶ cm/s
Papp at 120 min ([2]; Treatment 1: Compound B assayed with controls, Rep 2): 18 ×10⁻⁶ cm/s
Papp at 120 min ([2]; Treatment 1: Compound B assayed with controls, Rep 3): 18.4 ×10⁻⁶ cm/s
Papp at 120 min ([2]; Treatment 2: Compound B assayed with controls + MAO inhibitor Pargyline, Average ± STD): 25.4 ± 0.41 ×10⁻⁶ cm/s
Papp at 120 min ([2]; Treatment 2: Compound B assayed with controls + MAO inhibitor Pargyline, Rep 1): 25.1 ×10⁻⁶ cm/s
Papp at 120 min ([2]; Treatment 2: Compound B assayed with controls + MAO inhibitor Pargyline, Rep 2): 25.9 ×10⁻⁶ cm/s
Papp at 120 min ([2]; Treatment 2: Compound B assayed with controls + MAO inhibitor Pargyline, Rep 3): 25.2 ×10⁻⁶ cm/s

CN[C@@H](C)C/C=C/c1cncc(OC)c1 [Compound A, (2S)-(4E)-N-methyl-5-(3-(5-methoxypyridin)yl)-4-penten-2-amine]
Plasma Conc. ([1]; Group 1, OG, 10 mg/kg, 30 min, 10 mg/kg): 216 ng/mL and 278 ng/mL
Plasma Conc. ([1]; Group 1, OG, 10 mg/kg, 60 min, 10 mg/kg): 239 ng/mL and 234 ng/mL
Plasma Conc. ([1]; Group 3, OG, 10 mg/kg, 10 min, 10 mg/kg): 327 ng/mL and 249 ng/mL
Kp at 0.5 h [1, 3]: 0.044
Kp at 1 h [1, 3]: 0.038
concentration at 30 min ([1]; Sprague-Dawley, rat, in vivo, 10 mg/kg, Group 1, OG, 10 mg/kg, 30 min, read-out: Brain Conc.): 2.04 ng/mL and 9.6 ng/g
concentration at 30 min ([1]; Sprague-Dawley, rat, in vivo, 10 mg/kg, Group 1, OG, 10 mg/kg, 30 min, read-out: Plasma Conc.): 174 ng/mL
concentration at 60 min ([1]; Sprague-Dawley, rat, in vivo, 10 mg/kg, Group 1, OG, 10 mg/kg, 60 min, read-out: Brain Conc.): 1.26 ng/mL and 6.08 ng/g
concentration at 60 min ([1]; Sprague-Dawley, rat, in vivo, 10 mg/kg, Group 1, OG, 10 mg/kg, 60 min, read-out: Plasma Conc.): 158 ng/mL
concentration at 60 min ([1]; Sprague-Dawley, rat, in vivo, 10 mg/kg, Group 2, OG, 10 mg/kg, 60 min, read-out: Brain Conc.): 2.81 ng/mL and 13.9 ng/g
concentration at 10 min ([1]; Sprague-Dawley, rat, in vivo, 10 mg/kg, Group 3, OG, 10 mg/kg, 10 min, read-out: Plasma Conc.): 313 ng/mL
Kp at 0.5 h [1, 4]: 0.042
Kp at 1 h [1, 4]: 0.032
Kp at […] [1, 4]: 0.039
Kp at 0.5 h ([1]; Sprague-Dawley, rat, in vivo, intranasal, 0.1 mg/kg, Brain-to-plasma ratio): 5.52
Kp at […] ([1]; Sprague-Dawley, rat, in vivo, intranasal, 0.1 mg/kg, Brain-to-plasma ratio (average value)): 2.21
Kp at 0.5 h [1, 5]: 4.28
Kp at 1 h [1, 5]: 6.4
Kp at […] [1, 5]: 1.58
Kp at 0.5 h [1, 6]: 2.37
Kp at 1 h [1, 6]: 3.38
Kp at […] [1, 6]: 1.75
Exposures in plasma and brain, Compound A compared with Compound B ([1]; by both intranasal and oral administration): much greater
Brain-to-plasma ratios, intranasal as opposed to oral gavage administration ([1]; rat, in vivo): generally greater
Papp at 120 min [2]: 25.1 ×10⁻⁶ cm/s
